Measured values: PubChem BioAssay (NCI)
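Method: 48-hour compound exposure of cells in 96-well plates, five concentrations, linear interpolation of endpoints. GI50 is the concentration that inhibits growth by half. At the TGI there is no net growth.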

These compounds were tested on OVCAR-3 ovarian (assay: NCI anticancer screen, dose series, 48 h).

SMILES	TGI [µM]
O=C(c1ccc([N+](=O)[O-])cc1[N+](=O)[O-])N(/N=C/C=C/c1ccccc1)c1nnc(-c2ccccc2)c(-c2ccccc2)n1	> 100
Cc1cc(C)nc(NS(=O)(=O)c2ccc(Nc3c4ccccc4nc4c(C(=O)N5CCN(CCO)CC5)cccc34)cc2)n1	> 100
CC1=C(C(=O)Nc2ccccc2)C(c2ccc(Cl)c(Cl)c2)C(C(=O)Nc2ccccc2)=C(C)N1	25.3
COc1ccc(NC(=O)CSc2nnc(-c3ccc(NC(C)=O)cc3)o2)cc1	35.5
CC(=O)N/C(=C\c1ccccc1/C=C(\NC(C)=O)c1nc2cc(C)c(C)cc2[nH]1)c1nc2cc(C)c(C)cc2[nH]1	35.7
CC12c3ccccc3C(OC=O)(c3ccccc31)C1(C)c3ccccc3C2(OC=O)c2ccccc21	> 100
CN(Cc1cnc2nc(N)nc(N)c2n1)c1ccc(C(=O)N[C@@H](CCS(=O)(=O)O)C(=O)O)cc1	> 100
CCOC(=O)Cc1csc(Nc2ccccc2[N+](=O)[O-])n1	> 100

What follows are compounds tested on OVCAR-4 ovarian (assay: NCI anticancer screen, dose series, 48 h).

SMILES	GI50 [µM]	TGI [µM]
Cc1nc2c(Br)cc(Br)cc2c(=O)n1-c1nnc(-c2cccc(Cl)c2Cl)c(N)n1	84.5	> 100
N#CC(I)CS(=O)(=O)c1ccccc1 (stereo unspecified)	2.01	4.69
Cc1nc2sccn2c1-c1nc2sccn2c1/C=C1/C(=O)Nc2ccccc21	13.8	> 100
O=Cc1cc2c(cc1-c1cc3c(cc1C=O)OCO3)OCO2	–	> 100
C/C(=N\NC(N)=O)c1sc(-c2nc(C)c(/C(C)=N/NC(N)=O)s2)nc1C	–	> 100
CN(C)CCNC(=O)Cc1ccccc1Nc1c(Cl)cccc1Cl	–	50.6
O/N=C1\CCCCC1C(NO)c1ccccc1 (stereo unspecified)	–	> 100
C[N+](C)(C)CC(=O)N/N=C(/Cc1cc(=O)oc2cc(O)ccc12)C(=O)Nc1ccc(Cl)cc1	–	> 100
COC(=O)c1c2c(c(C)[n+]([O-])c1C)C(=O)C(NCc1ccc(Br)cc1)=CC2=O	0.704	2
COc1cc(OC)c(OC)cc1/C=N/NC(=O)N/N=C/c1cc(OC)c(OC)cc1OC	–	> 100
CCOC(=O)Nc1c(C)nc2ccccn12	> 100	> 100
Cc1cc2c(cc1C)[n+](=O)cc(C(=O)C/C(=N/NC(=S)NN)C(=O)Nc1cccc(C(F)(F)F)c1)n2[O-]	–	> 100
COc1cc(C[P+](c2ccccc2)(c2ccccc2)c2ccccc2)cc(OC)c1OC	–	> 100
C=C(CN(C)Cc1ccccc1)c1ccc(NC(=O)c2ccc(C(=C)CN(C)Cc3ccccc3)cc2)cc1	17.6	38.6
COC(=N)c1csc(C2OC(CO)C(O)C2O)n1 (stereo unspecified)	–	> 100
CN1Nc2ccccc2CC1=O	–	> 100
CCOc1ccc(OCC(=O)O)c2c1CCCC2=O	–	> 100
Nc1c(S(=O)(=O)c2ccc(Cl)cc2)c2nc3ccccc3nc2n2ccnc12	–	33.3
CCCCCCCC(=O)OCC1OC(n2cc(F)c(=O)[nH]c2=O)C(N)C(OC(=O)CCCCCCC)C1O (stereo unspecified)	–	29

SMILES	GI50 [µM]	TGI [µM]
CCOc1ccc(NC(=O)CC2SC(=Nc3ccc(C)cc3C)NC2=O)cc1 (stereo unspecified)	–	> 100
CCSc1nc(N=Cc2ccccc2O)c2cn[nH]c2n1	35	> 100
Oc1oc(C(=C2N=c3ccccc3=N2)c2ccc(Cl)cc2)c(O)c1-c1ccc(Cl)cc1	–	> 100
Cc1nc2c(N)ncnc2o1	–	> 100
O=C1C/C(Br)=C\c2ccccc2-c2ccccc21	–	7.88
CCCCCCCCCCCC[N+]12CC[N+](CCN)(CC1)CC2	–	> 100
O=[N+]([O-])c1cccnc1N=Nc1c(O)[nH]c2ccccc12	–	73
O=c1[nH]c(=O)n(C2CC(O)C(CO)O2)cc1OS(=O)(=O)C(F)(F)F (stereo unspecified)	–	> 100
O=C1C=C(Nc2ccc(Cl)cc2C(=O)c2ccccc2)c2ccccc2C1=O	–	> 100
CC[C@@H]1NC(C(=O)OC)Cc2c1[nH]c1ccccc21 (stereo partly specified)	–	> 100
O=C1C=C(c2c(O)ccc3ccccc23)c2cc(O)ccc2C1=O	–	26.1
O=C(c1ccc([N+](=O)[O-])cc1[N+](=O)[O-])N(/N=C/C=C/c1ccccc1)c1nnc(-c2ccccc2)c(-c2ccccc2)n1	–	76.6
Cc1cc(C)nc(NS(=O)(=O)c2ccc(Nc3c4ccccc4nc4c(C(=O)N5CCN(CCO)CC5)cccc34)cc2)n1	–	> 100
CC1=C(C(=O)Nc2ccccc2)C(c2ccc(Cl)c(Cl)c2)C(C(=O)Nc2ccccc2)=C(C)N1	–	27.7
COc1ccc(NC(=O)CSc2nnc(-c3ccc(NC(C)=O)cc3)o2)cc1	–	30.3
CC12c3ccccc3C(OC=O)(c3ccccc31)C1(C)c3ccccc3C2(OC=O)c2ccccc21	–	> 100
CN(Cc1cnc2nc(N)nc(N)c2n1)c1ccc(C(=O)N[C@@H](CCS(=O)(=O)O)C(=O)O)cc1	–	> 100
CCOC(=O)Cc1csc(Nc2ccccc2[N+](=O)[O-])n1	–	> 100

What follows are compounds tested on OVCAR-8 ovarian (assay: NCI anticancer screen, dose series, 48 h).

SMILES	GI50 [µM]	TGI [µM]
Cc1nc2c(Br)cc(Br)cc2c(=O)n1-c1nnc(-c2cccc(Cl)c2Cl)c(N)n1	18.7	60.7
N#CC(I)CS(=O)(=O)c1ccccc1 (stereo unspecified)	17.4	32.2
Cc1nc2sccn2c1-c1nc2sccn2c1/C=C1/C(=O)Nc2ccccc21	11.4	> 100
O=Cc1cc2c(cc1-c1cc3c(cc1C=O)OCO3)OCO2	–	> 100
C/C(=N\NC(N)=O)c1sc(-c2nc(C)c(/C(C)=N/NC(N)=O)s2)nc1C	–	> 100
CN(C)CCNC(=O)Cc1ccccc1Nc1c(Cl)cccc1Cl	–	37.1
O/N=C1\CCCCC1C(NO)c1ccccc1 (stereo unspecified)	–	> 100
C[N+](C)(C)CC(=O)N/N=C(/Cc1cc(=O)oc2cc(O)ccc12)C(=O)Nc1ccc(Cl)cc1	–	> 100
COC(=O)c1c2c(c(C)[n+]([O-])c1C)C(=O)C(NCc1ccc(Br)cc1)=CC2=O	1.83	7.19
O=S(=O)(OI(OI(OS(=O)(=O)C(F)(F)F)c1ccccc1)c1ccccc1)C(F)(F)F	–	> 100
COc1cc(OC)c(OC)cc1/C=N/NC(=O)N/N=C/c1cc(OC)c(OC)cc1OC	–	> 100
FC(F)(F)c1ccc2nc(NCc3ccccc3)c(-c3ccccc3)nc2c1	–	> 100
CCOC(=O)Nc1c(C)nc2ccccn12	> 100	> 100
Cc1cc2c(cc1C)[n+](=O)cc(C(=O)C/C(=N/NC(=S)NN)C(=O)Nc1cccc(C(F)(F)F)c1)n2[O-]	–	> 100
COCOCCC#CCO	–	> 100
COc1cc(C[P+](c2ccccc2)(c2ccccc2)c2ccccc2)cc(OC)c1OC	–	> 100
CCCN(CCC)c1c([N+](=O)[O-])cc(C(=O)N(CC)CC)cc1[N+](=O)[O-]	–	69
C=C(CN(C)Cc1ccccc1)c1ccc(NC(=O)c2ccc(C(=C)CN(C)Cc3ccccc3)cc2)cc1	45.3	> 100
COC(=N)c1csc(C2OC(CO)C(O)C2O)n1 (stereo unspecified)	–	> 100
CN1Nc2ccccc2CC1=O	–	> 100
CCOc1ccc(OCC(=O)O)c2c1CCCC2=O	–	> 100

SMILES	GI50 [µM]	TGI [µM]
Nc1c(S(=O)(=O)c2ccc(Cl)cc2)c2nc3ccccc3nc2n2ccnc12	–	> 100
CCCCCCCC(=O)OCC1OC(n2cc(F)c(=O)[nH]c2=O)C(N)C(OC(=O)CCCCCCC)C1O (stereo unspecified)	–	31.6
CCOc1ccc(NC(=O)CC2SC(=Nc3ccc(C)cc3C)NC2=O)cc1 (stereo unspecified)	–	> 100
CCSc1nc(N=Cc2ccccc2O)c2cn[nH]c2n1	48.8	> 100
Oc1oc(C(=C2N=c3ccccc3=N2)c2ccc(Cl)cc2)c(O)c1-c1ccc(Cl)cc1	–	> 100
Cc1nc2c(N)ncnc2o1	–	> 100
O=C1C/C(Br)=C\c2ccccc2-c2ccccc21	–	5.41
CCCCCCCCCCCC[N+]12CC[N+](CCN)(CC1)CC2	–	> 100
O=[N+]([O-])c1cccnc1N=Nc1c(O)[nH]c2ccccc12	–	> 100
O=c1[nH]c(=O)n(C2CC(O)C(CO)O2)cc1OS(=O)(=O)C(F)(F)F (stereo unspecified)	–	> 100
O=C1C=C(Nc2ccc(Cl)cc2C(=O)c2ccccc2)c2ccccc2C1=O	–	> 100
CC[C@@H]1NC(C(=O)OC)Cc2c1[nH]c1ccccc21 (stereo partly specified)	–	> 100
O=C1C=C(c2c(O)ccc3ccccc23)c2cc(O)ccc2C1=O	–	28.9
O=C(c1ccc([N+](=O)[O-])cc1[N+](=O)[O-])N(/N=C/C=C/c1ccccc1)c1nnc(-c2ccccc2)c(-c2ccccc2)n1	–	67.8
Cc1cc(C)nc(NS(=O)(=O)c2ccc(Nc3c4ccccc4nc4c(C(=O)N5CCN(CCO)CC5)cccc34)cc2)n1	–	> 100
CC1=C(C(=O)Nc2ccccc2)C(c2ccc(Cl)c(Cl)c2)C(C(=O)Nc2ccccc2)=C(C)N1	–	27.9
COc1ccc(NC(=O)CSc2nnc(-c3ccc(NC(C)=O)cc3)o2)cc1	–	36.6
CC(=O)N/C(=C\c1ccccc1/C=C(\NC(C)=O)c1nc2cc(C)c(C)cc2[nH]1)c1nc2cc(C)c(C)cc2[nH]1	–	40.9
CC12c3ccccc3C(OC=O)(c3ccccc31)C1(C)c3ccccc3C2(OC=O)c2ccccc21	–	> 100
CN(Cc1cnc2nc(N)nc(N)c2n1)c1ccc(C(=O)N[C@@H](CCS(=O)(=O)O)C(=O)O)cc1	–	> 55.3
CCOC(=O)Cc1csc(Nc2ccccc2[N+](=O)[O-])n1	–	> 100
